Test results as given in patent publication US20220184034A1, “METHODS FOR TREATING CUTANEOUS METASTATIC CANCERS” (Adgero Biopharmaceuticals Holdings, Inc., priority 2020, published 2022).

Tests used:
Format in all cases: in vivo, patients
[1] = system: CMBC lesions; assay: Four phase 2/3 studies of SnET2 PDT: lesion treatment response; conditions: 1.2 mg/kg; for Responders / Response Rate of Evaluable Lesions: 200 J/cm^2, ~24 h, lesions larger than 1 cm; for lesion response rate: 200 J/cm^2
Procedure: (§1) A factor that impacts clinical outcome is the time delay required for post-treatment effects to resolve. This factor is observed in the results from four subsequent phase 2/3 studies of CMBC lesions using a fixed drug dose of 1.2 mg/kg and a fixed light dose of 200 J/cm^2 administered at approximately 24 hours post-infusion. In these studies lesions were first scored for lesion reaction and then scored for lesion treatment response after the lesion reaction had resolved. In the case of lesion reaction scoring, the reaction was first assessed by the investigator at approximately 4-week intervals and assigned a Reaction Score according to the following defined terms: • 0=No erythema, edema or residual eschar • 1=Mild (faint) erythema and/or slight edema present • 2=Moderate erythema and edema present • 3=Severe erythema and edema present • 4=Sloughing, ulceration, and/or eschar present • 5=Eschar requiring debridement
(§2) Once a lesion scored a Reaction Score of 0 or 1 it was deemed suitably healed for evaluation, at which time its treatment response was quantified by visual measurement of the two longest dimensions. In those cases where the patient left the study before a reaction score of 0-1 was reached, those lesions were classified as not evaluable.
(§3) An analysis conducted of the median time to lesion evaluation (time to reach a reaction score of 0 or 1) in these same four phase 2/3 CMBC trials indicates the time delay for post-treatment effects to resolve was closely associated with the acute (week 1-2 post-treatment) lesion reaction score, with higher acute reaction scores being associated with a longer time to lesion evaluation, consistent with a more severe treatment reaction requiring a longer time to resolve. […] Because larger lesions are most likely to be clinically relevant, this table only includes those lesions from the same four CMBC phase 2/3 trials that had baseline dimensions larger than 1 cm.

[2] = system: cutaneous lesions arising from either basal cell cancer, squamous cell cancer or CMBC; assay: Phase 1/2 dose escalation study of SnET2 PDT: acute lesion reaction grade at Week 1; conditions: Week 1 post-treatment
Procedure: Two Phase 1/2 studies established the clinical dosimetry. The first study was a dose escalation study that enrolled a total of 22 patients with cutaneous lesions arising from either basal cell cancer, squamous cell cancer or CMBC. A total of 213 lesions were treated using photosensitizer SnET2) doses ranging from 0.1-1.2 mg/kg, light doses of 100, 150 or 200 J/cm^2 and treatment timepoints of 24, 48, or 72 hours post-infusion. Two key measures were utilized in these studies, lesion reaction and lesion response. Lesion reaction was an acute characterization of the treatment effect that was performed out to 1 week post-treatment according to the following scale: • Grade 0=No visual erythema or edema • Grade 1=Faint erythema and/or slight edema • Grade 2=Moderate erythema and edema • Grade 3=Severe discoloration, edema, sloughing or eschar
A further analysis was undertaken to explore the relationship between the acute lesion reaction and the lesion response. […] Following are the results from patients who were scored for lesion reaction at Week 1 post-treatment and who received a drug dose of 0.8 mg/kg or higher. […] For the 0.8 mg/kg cases, only 5 of the 37 lesions (14%) received the highest lesion reaction score. In the case of the 1.2 mg/kg dose group, the percentage of lesions with the maximum lesion reaction score, 13 of 22 (59%), was substantially higher.

[3] = system: CMBC lesions; assay: Four phase 2/3 studies of SnET2 PDT: lesion reaction score and time to lesion evaluation; conditions: 1.2 mg/kg; for Median Evaluable Week / Total with Max Reaction During Trial ≥4: 200 J/cm^2, ~24 h, lesions larger than 1 cm; for median time to evaluation: 200 J/cm^2
Procedure: Subsequent studies were conducted with dose parameters of 1.2 mg/kg of photosensitizer, 200 J/cm^2 of light, and 24 hours post administration as a treatment timepoint.
as §1, §2, §3

[4] = acute lesion reaction score 0-1
[5] = acute lesion reaction score 2-3
[6] = acute lesion reaction score 4-5

% with Max Rx Score at Week 1 ([2]; 0.8 mg/kg, 100 J/cm^2): 0%
Total with Max Rx Score at Week 1 ([2]; 0.8 mg/kg, 100 J/cm^2): 0
% with Max Rx Score at Week 1 ([2]; 0.8 mg/kg, 150 J/cm^2): 7%
Total with Max Rx Score at Week 1 ([2]; 0.8 mg/kg, 150 J/cm^2): 1
% with Max Rx Score at Week 1 ([2]; 0.8 mg/kg, 200 J/cm^2): 27%
Total with Max Rx Score at Week 1 ([2]; 0.8 mg/kg, 200 J/cm^2): 4
lesions with the highest lesion reaction score ([2]; 0.8 mg/kg): 5 of the 37
percentage of lesions with the highest lesion reaction score ([2]; 0.8 mg/kg): 14%
% with Max Rx Score at Week 1 ([2]; 1.0 mg/kg, 100 J/cm^2): 0%
Total with Max Rx Score at Week 1 ([2]; 1.0 mg/kg, 100 J/cm^2): 0
% with Max Rx Score at Week 1 ([2]; 1.0 mg/kg, 150 J/cm^2): 0%
Total with Max Rx Score at Week 1 ([2]; 1.0 mg/kg, 150 J/cm^2): 0
% with Max Rx Score at Week 1 ([2]; 1.0 mg/kg, 200 J/cm^2): 0%
Total with Max Rx Score at Week 1 ([2]; 1.0 mg/kg, 200 J/cm^2): 0
% with Max Rx Score at Week 1 ([2]; 1.2 mg/kg, 100 J/cm^2): 33%
Total with Max Rx Score at Week 1 ([2]; 1.2 mg/kg, 100 J/cm^2): 2
% with Max Rx Score at Week 1 ([2]; 1.2 mg/kg, 150 J/cm^2): 78%
Total with Max Rx Score at Week 1 ([2]; 1.2 mg/kg, 150 J/cm^2): 7
% with Max Rx Score at Week 1 ([2]; 1.2 mg/kg, 200 J/cm^2): 57%
Total with Max Rx Score at Week 1 ([2]; 1.2 mg/kg, 200 J/cm^2): 4
lesions with the maximum lesion reaction score ([2]; 1.2 mg/kg): 13 of 22
percentage of lesions with the maximum lesion reaction score ([2]; 1.2 mg/kg): 59%
Median Evaluable Week [3, 4]: 1 Week
Total with Max Reaction During Trial ≥4 [3, 4]: 14
Median Evaluable Week [3, 5]: 6 Week
Total with Max Reaction During Trial ≥4 [3, 5]: 165
Median Evaluable Week [3, 6]: 12 Week
Total with Max Reaction During Trial ≥4 [3, 6]: 496
median time to evaluation ([3]; acute lesion reactions of 2-3): 6 weeks
Substance: tin ethyl etiopurpurin [SnET2]
Responders [1, 4]: 48
Response Rate of Evaluable Lesions [1, 4]: 63%
Responders [1, 5]: 168
Response Rate of Evaluable Lesions [1, 5]: 81%
Responders [1, 6]: 179
Response Rate of Evaluable Lesions [1, 6]: 88%
lesion response rate ([1]; acute lesion reactions of 2-3): 81%
lesion response rate ([1]; acute reactions of 4-5): 88%
healing following treatment ([3]; 200 J/cm^2, 24 hours post administration): slow healing following treatment was observed
median time to evaluation ([3]; acute reactions of 4-5 (eschar or ulceration)): 12 weeks
